The test system of this experiment is C. jeikeium. Description: modified disc diffusion assay, C. jeikeium. The following applies: 10 μL extract per disc; vancomycin 5 μg disc; aerobic, 37° C., 24 hours. The class given is cell-based, Corynebacterium jeikeium. Here is the method:
Evaluation of antibacterial activity screening of the T. ferdinandiana fruit and leaf extracts was assessed using a modified disc diffusion assay.
100 μL of each individual bacteria (C. jeikeium, B. linens, P. acnes and S. epidermidis) was grown separately in 20 mL of the appropriate broth until an approximate count of 10^8 cells/mL was reached.
A volume of 100 μL of each bacterial suspension was spread onto agar plates and the extracts tested for antibacterial activity using 5 mm sterilised filter paper discs.
C. jeikeium cultures were spread onto nutrient agar plates supplemented with 300 μL Tween 80/L of agar.
Discs were infused with 10 μL of the individual extracts, allowed to dry and placed onto inoculated plates. The plates were left to stand at 4° C. for 2 hours before incubation.
Plates inoculated with B. linens, S. epidermidis or C. jeikeium cultures were incubated aerobically at 37° C. for 24 hours.
The diameters of the inhibition zones were measured to the closest whole millimetre. Each assay was completed in at least triplicate. […]
The ability of T. ferdinandiana leaf and fruit extracts to inhibit the growth of bacterial species under test associated with the production of body and foot odours were assessed. […]
Background: Agar diffusion results depend on both activity and mobility in agar.

The values that follow come from US20200016062A1, “TERMINALIA FERDINANDIANA LEAF EXTRACT AND PRODUCTS CONTAINING EXTRACT OF TERMINALIA FERDINANDIANA LEAF” (RISING PHOENIX INDUSTRIES PTY LTD, priority 2016, published 2020).

For `CN[C@H](CC(C)C)C(=O)N[C@H]1C(=O)N[C@@H](CC(N)=O)C(=O)N[C@H]2C(=O)N[C@H]3C(=O)N[C@H](C(=O)N[C@H](C(=O)O)c4cc(O)cc(O)c4-c4cc3ccc4O)[C@H](O)c3ccc(c(Cl)c3)Oc3cc2cc(c3O[C@@H]2O[C@H](CO)[C@@H](O)[C@H](O)[C@H]2O[C@H]2C[C@](C)(N)[C@H](O)[C@H](C)O2)Oc2ccc(cc2Cl)[C@H]1O` [vancomycin], the “growth inhibitory activity against C. jeikeium (zones of inhibition)” value is reported as “good inhibitor”.
